Assay results published in US8207223B2, “Pharmaceutical composition for treatment of diseases associated with decrease in bone mass comprising EP4 agonist as active ingredient” (Ono Pharmaceutical Co., Ltd., priority 2001, dated 2012).

How the values were obtained:
murine EP4 = target: T1, murine EP4 (Mus musculus, UniProt P32240); experiment: Receptor-binding experiment (3H-PGE2 binding inhibition) using membranes of CHO cells expressing prostanoid receptor sub-types; conditions: binding to EP4 receptor, CHO cell membranes, read-out: Dissociation Constant Ki
T1 construct: expressed in transfected cells; host or cells: CHO cells (membrane fraction)
T1 sequence (P32240 whole entry): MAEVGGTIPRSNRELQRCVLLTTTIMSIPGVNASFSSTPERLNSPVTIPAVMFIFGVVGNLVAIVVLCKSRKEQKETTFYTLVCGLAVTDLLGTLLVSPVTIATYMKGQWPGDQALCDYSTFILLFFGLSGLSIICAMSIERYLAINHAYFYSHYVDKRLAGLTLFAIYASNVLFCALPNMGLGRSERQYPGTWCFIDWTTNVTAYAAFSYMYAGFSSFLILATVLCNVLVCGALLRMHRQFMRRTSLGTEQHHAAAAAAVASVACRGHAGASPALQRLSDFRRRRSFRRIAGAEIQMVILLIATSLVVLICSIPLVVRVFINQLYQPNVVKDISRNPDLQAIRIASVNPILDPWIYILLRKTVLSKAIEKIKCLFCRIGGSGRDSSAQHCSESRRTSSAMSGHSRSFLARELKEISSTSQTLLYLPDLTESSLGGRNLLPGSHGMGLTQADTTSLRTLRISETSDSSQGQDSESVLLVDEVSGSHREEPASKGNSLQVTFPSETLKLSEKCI
Method: (i) Experiment for receptor-binding using cells which express prostanoid receptor sub-types
According to the method of Sugimoto et al. (J. Biol. Chem., 267, 6463-6466 (1992)), CHO cells which expressed prostanoid receptor sub-types (murine EP1, EP2, EP3α, and EP4, respectively) were prepared and used as membrane authentic samples.
A reaction solution (200 μl) containing the prepared membrane fraction (0.5 mg/ml) and ^3H-PGE2 was incubated at room temperature for 1 hour. The reaction was terminated with ice cold buffer (3 ml), and the reaction mixture was filtered under suction through a glass filter (GF/B), on which the binding ^3H-PGE2 was trapped, and the binding radioactivity was measured by means of a liquid scintillator.
The Kd value was obtained from the Acatchard plots [Ann. N.Y. Acad. Sci., 51, 660 (1949)]. Non-specific binding was obtained as the binding in the presence of an excess amount (2.5 μM) of unlabelled PGE2. Measurement of the binding inhibition for ^3H-PGE2 with the compounds of the invention was performed by adding ^3H-PGE2 (2.5 nM) and a series of concentrations of the compound of the invention. In this reaction, the following buffer was used in all cases. • Buffer: 10 mM potassium phosphate (pH 6.9), 1 mM EDTA, 10 mM MgCl2, and 0.1M NaCl.
Dissociation constant Ki (μM) of each compound was calculated from the following equation. Ki=IC50/(1+([C]/Kd))

[1] = system: collagen-induced arthritis; experiment: Arthritis induced by collagen in rats; format: in vivo, female DA/Slc rat; conditions: limbs scored at 27 days, full score 30, *p < 0.05
Method: (iv) Inhibitive Effect for Chronic Articular Rheumatism
(1) Arthritis Induced by Collagen in Rats
Experiment was performed according to the method of Osterman et al. (Inflamm. Res., 44, 258-263). An inducing agent (an emulsion prepared by adding an equal volume of physiological saline and 2 equivalent volume of incomplete Freund adjuvant to 0.3% solution of type II collagen of bovine origin) 0.1 ml each was applied intracutaneously to the 4 sites of the back of a female DA/Slc rat. After a lapse of 1 week, the same inducing agent was further applied intracutaneously to the tail root to induce arthritis. At 27 days the limbs were scored responding to the degree of redness and edema and assessed as 30 was regarded as full scores. The compound of the invention was dissolved in an equimolar amount of 0.02 mole/L sodium hydroxide solution, diluted with distilled water, and orally given 3 times a day from the next day of the first administration of inducer.

fibula bone fracture = experiment: Effect of accelerating cure of bone fracture (rat fibula fracture model; callus bone density and three-point bending strength); format: in vivo, male IGS rats; conditions: 50 ng/kg/min intravenously for 2 hours twice a day for 21 days
Method: (ix) Effect of Accelerating Cure of Bone Fracture
According to the methods of R. Sakai (Bone, 25, 191-196 (1999)), H. Kawaguchi (Endocrinology, 135, 774-781 (1994)) and T. Hoshino (J. Biomed Mater Res., 51, 229-306 (2000)), a bone fracture model was prepared with male IGS rats of 8 weeks of age. Hair of the left hind-limb of a rat was cut under anesthetization with pentobarbital Na, and Viccillin S 500 (500 mg potency) (Meiji Seika) was intramuscularly injected at a dose of 10 mg potency/100 μl distilled water/body. Then, the skin on the fibula (from the back of knee joint to tendo Achillis) was incised to ablate the muscular tissue and expose the fibula. […] The recovered fibulae were taken radiographs to assess development of the cure of fracture based on the presence of a fracture line and callus formation, and the density and strength of the bone around the fracture portion were measured. […]
The bone density of the callus region at the fracture position of the recovered fibula was measured referring to the reports of C. […] During photographing, a phantom for quantitative analysis of bone salt for mice (Kyoto Kagaku Co.) was set together in order to make an analytical curve for measurement of bone density. The image was read by a Bio-imaging Analyzer BAS-1800 (FUJIFILM)/Image Reader (FUJIFILM) and processed with an Image Gauge, ver.3.1.12 (FUJIFILM). […]

`CCCc1cccc(C[C@H](O)/C=C/[C@H]2CCC(=O)N2CCSCCCC(=O)O)c1` [Example 3(e), (15α,13E)-9-Oxo-15-hydroxy-16-(3-propylphenyl)-17,18,19,20-tetranor-5-thia-8-azaprost-13-enoic acid] showed a Ki (murine EP4) of 0.71 nM.

`O=C1CC[C@H](/C=C/[C@@H](O)Cc2ccc(F)cc2)N1CCSCCCCO` [Example 4 (h), (15α,13E)-9-Oxo-15-hydroxy-16-(4-fluorophenyl)-17,18,19,20-tetranor-5-thia-8-azaprost-13-en-1-ol] was tested, and the “Arthritic Score (Means ± SE)” value ([1]; 300 μg/kg orally 3 times a day) was 9.8 ± 1.9*.

With `O=C(O)CCCSCCN1C(=O)CC[C@@H]1/C=C/[C@@H](O)Cc1cccc(Cl)c1` [Example 3 (b), (15α,13E)-9-Oxo-15-hydroxy-16-(3-chlorophenyl)-17,18,19,20-tetranor-5-thia-8-azaprost-13-enoic acid] the “Arthritic Score (Means ± SE)” value ([1]; 300 μg/kg orally 3 times a day) was 19.3 ± 1.4*.

`O=C(O)CCCSCCN1C(=O)CC[C@@H]1/C=C/[C@@H](O)Cc1ccc(F)cc1` [Example 3 (l), (15α,13E)-9-Oxo-15-hydroxy-16-(4-fluorophenyl)-17,18,19,20-tetranor-5-thia-8-azaprost-13-enoic acid] was tested, and the “Arthritic Score (Means ± SE)” value ([1]; 100 μg/kg orally 3 times a day) was 16.3 ± 3.0*.

In the case of `Cc1ccc(C[C@H](O)/C=C/[C@H]2CCC(=O)N2CCSCCCC(=O)O)o1` [Example 3 (kk), (15α,13E)-9-Oxo-5-hydroxy-16-(5-methylfuran-2-yl)-17,18,19,20-tetranor-5-thia-8-azaprost-13-enoic acid], the “Arthritic Score (Means ± SE)” value ([1]; 100 μg/kg orally 3 times a day) is reported as 11.9 ± 3.6*.

With `COCc1cccc(C[C@H](O)/C=C/[C@H]2[C@H](O)CC(=O)[C@@H]2CCSCCCC(=O)OC)c1` [Compound (1), (11α,15α,13E)-9-Oxo-11,15-dihydroxy-16-(3-methoxymethylphenyl)-17,18,19,20-tetranor-5-thiaprost-13-enoic acid methyl ester] the “Bone Density” value (fibula bone fracture; callus region) was 42.8 ± 2.58 mg/cm^2 and the “Fracture Strength” value (fibula bone fracture; three-point bending test) was 30.4 ± 12.4% of intact.

Work on `O=C(O)CCCCCCN1C(=O)CC[C@@H]1/C=C/[C@@H](O)Cc1cccc(C#Cc2ccccc2)c1` [Example 2(pp), (15α,13E)-9-Oxo-15-hydroxy-16-(3-(2-phenylethynyl)phenyl)-17,18,19,20-tetranor-8-azaprost-13-enoic acid] yielded a Ki (murine EP4) of 0.24 nM.
